Experimental findings from patent US12624004B2 (Fudan University, priority 2019, dated 2026) are described below.

Like-named read-outs stand apart in the source and are kept apart here.

One test deals with T1, μ opioid receptor (Homo sapiens, UniProt P35372).
T1 construct: expressed in transfected cells; host or cells: CHO cells (membranes)
As to the kind of experiment: Competition binding assay on membranes of CHO cells expressing μ opioid receptor, [3H]-labeled ligand. A digest of the protocol:
(§1)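 CHO membranes (20–30 μg protein) incubated with [3H]-labeled ligand at 1–2 nM and test compounds, 30 min at 30° C; nonspecific binding with 1 μM corresponding ligand. Filtered on GF/C, washed with 50 mM Tris-HCl pH 7.4, scintillation-counted. IC50 converted to Ki by Ki=IC50/(1+[L]/Kd).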

For another test, the target named is T2, κ opioid receptor (Homo sapiens, UniProt P41145).
T2 construct: expressed in transfected cells; host or cells: CHO cells (membranes)
As to the kind of experiment: Competition binding assay on membranes of CHO cells expressing κ opioid receptor, [3H]-labeled ligand. In outline:
as §1

Where [1] appears, read: Table 3-1, 1 μM concentration of compounds.
Setting [2] is: Table 4-1, 1 μM concentration of compound.

For `COc1cccc(C2(O)CCCCC2CN(C)C)c1` (stereo not shown) [Tramadol, reference compound], the inhibition at 1 µM on μ opioid receptor (0.5 h, Table 5-1, 1 μM concentration of compound, read-out: μOR Combination rate (%)) was 6 ± 0.4%; at μ opioid receptor (Table 2-1, 1 μM concentration of compound, read-out: μOR Binding rate (%)) it was 6 ± 0.4%; at κ opioid receptor (0.5 h, Table 2-1, 1 μM concentration of compound, read-out: κOR Binding rate (%)), 0%; on κ opioid receptor (0.5 h, Table 5-1, 1 μM concentration of compound, read-out: κOR Combination rate (%)), 0%. The inhibition at 10 µM at μ opioid receptor (Table 1-1, 10 μM concentration of compound, mean ± SD of three measurements, read-out: μOR Binding rate (%)) came out at 6 ± 0.4%; on κ opioid receptor (0.5 h, Table 1-1, 10 μM concentration of compound, read-out: κOR Binding rate (%)), 0%. The “μOR Binding rate (%)” value at μ opioid receptor (setting [1]) was 6.0%; on μ opioid receptor (setting [2]) it was 6.0 ± 0.4%. Besides, the “κOR Binding rate (%)” value on κ opioid receptor (setting [1]) and at κ opioid receptor (setting [2]) was 0% each time.
